Laboratory results reported in patent publication US20180036382A1, “FORMULATIONS FOR ORAL ADMINISTRATION OF ACTIVE AGENTS WITH CONTROLLED ABSORPTION PROFILE” (Entera Bio Ltd., priority 2015, published 2018).

Tests used:
Assay type in all cases: in vivo, human
[1] = Pharmacokinetic study of oral teriparatide tablet in healthy volunteers (Example 1)
Protocol: An open label comparative pharmacokinetic study was performed in healthy volunteers over the course of 3 months. Each volunteer received—in each of two visits—the same oral tablet containing 0.75 mg of teriparatide, a recombinant form of parathyroid hormone (1-34).
The formulation was composed of teriparatide (0.75 mg), SNAC (sodium 8-N-(2-hydroxybenzoyl) aminocaprylate), soybean trypsin inhibitor (SBTI) and a small amount of magnesium stearate.
Tablets were administered in the morning after an 8-hour overnight fast and immediately followed by 150 ml of water. At each visit a standard meal was provided 3 hours after drug administration. […] There was a two weeks period between the visits.
(§1) To determine parathyroid hormone (1-34) (PTH(1-34)) concentrations, blood samples (4 ml each) were drawn via an indwelling catheter from the forearm vein at predetermined time points during each visit. The cannula was flushed with 1.5 ml normal saline after each sampling. In addition, to avoid sample dilution, 1 ml of blood was drawn and discarded before the next sample. The blood samples were taken at following times: baseline (predose), 10 minutes, 15 minutes, 20 minutes, 30 minutes, 45 minutes, 60 minutes, 75 minutes, 90 minutes, 105 minutes, 2 hours, 3 hours, 4 hours and 5 hours post-administration. Each blood sample was collected into a single tube containing EDTA (ethylenediaminetetraacetic acid) and placed on ice. Within 15 minutes of blood collection, samples were centrifuged for 10 minutes at 4° C. (2500 rotations per minute) and the plasma was separated and divided into two or three aliquots. Each aliquot was transferred into appropriately labeled polypropylene tubes and stored at approximately −20° C. pending analysis. PTH (1-34) levels were measured using an IDS-iSYS automated assay for the measurement of intact PTH (1-34) in human plasma or serum.

[2] = Phase I clinical trial of oral teriparatide formulations, plasma PTH (1-34) versus subcutaneous injection (Example 2)
Protocol: A Phase I clinical study of exemplary oral formulations comprising teriparatide (parathyroid hormone (1-34)) was conducted at the Hadassah Clinical Research Center. 42 healthy volunteers were included throughout the study.
The formulation was composed of teriparatide (200, 400, 680, 1400 or 1800μ.g), SNAC (sodium 8-N-(2-hydroxybenzoyl) aminocaprylate), soybean trypsin inhibitor and magnesium stearate.
Tablets were administered in the morning after an 8-hour overnight fast and immediately followed by 150 ml of water. At each visit a standard meal was provided 3 hours after drug administration.
as §1, with “hormone” for “hormone (1-34) (PTH(1-34))”, “points.” for “points during each visit.”, “(predose),” for “(predose), 10 minutes,”, “15” for “15 minutes, 20”
Oral administration of teriparatide was performed as described hereinabove at doses of 200, 400, 680, 1400 or 1800 μg. The Cmax of PTH (1-34) for each orally administered dose was compared with the Cmax of PTH (1-34) for subcutaneous injection of 20 μg teriparatide.

[3] = tested on: cAMP, a known marker of PTH activity; experiment: Plasma cAMP levels after teriparatide administration (marker of PTH activity); conditions: FIG. 4
Protocol: In addition, plasma levels of cAMP, a known marker of PTH activity, were determined in order to confirm biological activity of administered PTH. cAMP plasma levels were measured following oral administration of 680 μg teriparatide or subcutaneous injection of 20 μg teriparatide, as described hereinabove.

- Cmax after 1st administration ([1]; oral tablet 0.75 mg teriparatide with SNAC, SBTI, magnesium stearate, fasted healthy volunteers, plasma PTH (1-34), one table row per individual subject (A, B, C)): 35 picogram/ml
- time for parathyroid hormone (1-34) levels to return to baseline levels after tablet administration ([1]; oral tablet 0.75 mg teriparatide, FIGS. 1A-1C): ≤ 60 min
- time after administration at which peak concentration (Cmax) occurred ([1]; oral tablet 0.75 mg teriparatide, all subjects and administrations, Table 3, FIGS. 1A-1C): ≤ 20 min
- Cmax after 2nd administration ([1]; same oral tablet 0.75 mg teriparatide, second visit two weeks later, plasma PTH (1-34), one table row per individual subject (A, B, C)): 36 picogram/ml
- decline of PTH levels following oral administration compared with subcutaneous administration ([2]; oral 1800 μg versus subcutaneous 20 μg teriparatide, FIG. 3): declined considerably more rapidly
- dose dependence of Cmax of PTH (1-34) following oral administration ([2]; oral doses 200, 400, 680, 1400 or 1800 μg teriparatide, FIG. 2): proportional to the dose
- oral dose providing a Cmax equivalent to that of subcutaneous administration of 20 μg teriparatide ([2]; oral tablets with SNAC, soybean trypsin inhibitor, magnesium stearate, FIG. 2): roughly 750 μg
SMILES: CC[C@H](C)[C@H](NC(=O)[C@H](CCC(=O)O)NC(=O)[C@H](CO)NC(=O)[C@@H](NC(=O)[C@@H](N)CO)C(C)C)C(=O)N[C@@H](CCC(N)=O)C(=O)N[C@@H](CC(C)C)C(=O)N[C@@H](CCSC)C(=O)N[C@@H](Cc1cnc[nH]1)C(=O)N[C@@H](CC(N)=O)C(=O)N[C@@H](CC(C)C)C(=O)NCC(=O)N[C@@H](CCCCN)C(=O)N[C@@H](Cc1cnc[nH]1)C(=O)N[C@@H](CC(C)C)C(=O)N[C@@H](CC(N)=O)C(=O)N[C@@H](CO)C(=O)N[C@@H](CCSC)C(=O)N[C@@H](CCC(=O)O)C(=O)N[C@@H](CCCN=C(N)N)C(=O)N[C@H](C(=O)N[C@@H](CCC(=O)O)C(=O)N[C@@H](Cc1c[nH]c2ccccc12)C(=O)N[C@@H](CC(C)C)C(=O)N[C@@H](CCCN=C(N)N)C(=O)N[C@@H](CCCCN)C(=O)N[C@@H](CCCCN)C(=O)N[C@@H](CC(C)C)C(=O)N[C@@H](CCC(N)=O)C(=O)N[C@@H](CC(=O)O)C(=O)N[C@H](C(=O)N[C@@H](Cc1cnc[nH]1)C(=O)N[C@@H](CC(N)=O)C(=O)N[C@@H](Cc1ccccc1)C(=O)O)C(C)C)C(C)C [teriparatide]
- plasma cAMP levels ([3]; oral administration of 680 μg teriparatide, compared with subcutaneous 20 μg): increased plasma cAMP levels to a similar degree
- plasma cAMP levels ([3]; subcutaneous administration of 20 μg teriparatide, compared with oral 680 μg): increased plasma cAMP levels to a similar degree
